Legend:
Type in all cases: in vivo
[1] = test system: Italian ryegrass (Lolium multiflorum); assay: Test A preemergence, visual plant response rating; conditions: approx. 10 days
Outline: (§1)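 Greenhouse evaluation, approx. 10 days post-spray. Soil: loam + sand. Postemergence stage: 1–2 leaves, height 2–10 cm. Vehicle: non-phytotoxic solvent blend with surfactant. Score: visual injury on a 0 (no effect) to 100 (complete control) scale.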

[2] = test system: barnyardgrass (Echinochloa crus-galli); assay: Test A preemergence, visual plant response rating; conditions: approx. 10 days
Outline: as §1

[3] = test system: foxtail, green (green foxtail, Setaria viridis); assay: Test A preemergence, visual plant response rating; conditions: approx. 10 days
Outline: as §1

[4] = test system: kochia (Kochia scoparia); assay: Test A preemergence, visual plant response rating; conditions: approx. 10 days
Outline: as §1

[5] = test system: pigweed (Amaranthus retroflexus); assay: Test A preemergence, visual plant response rating; conditions: approx. 10 days
Outline: as §1

[6] = test system: ragweed (common ragweed, Ambrosia elatior); assay: Test A preemergence, visual plant response rating; conditions: approx. 10 days
Outline: as §1

[7] = test system: Italian ryegrass (Lolium multiflorum); assay: Test A postemergence, visual plant response rating; conditions: for Ryegrass, Italian plant response rating (0 to 100 scale): 500 g ai/ha, postemergence, 0 is no effect, 100 is complete control; for Ryegrass, Italian plant response rating: Postemergence, 125 g ai/ha, 0 to 100 scale (0 no effect, 100 complete control)
Outline: as §1

[8] = test system: barnyardgrass (Echinochloa crus-galli); assay: Test A postemergence, visual plant response rating; conditions: for Barnyardgrass plant response rating (0 to 100 scale): 500 g ai/ha, postemergence, 0 is no effect, 100 is complete control; for Barnyardgrass plant response rating: Postemergence, 125 g ai/ha, 0 to 100 scale (0 no effect, 100 complete control)
Outline: as §1

[9] = test system: blackgrass (Alopecurus myosuroides); assay: Test A postemergence, visual plant response rating; conditions: for Blackgrass plant response rating (0 to 100 scale): 500 g ai/ha, postemergence, 0 is no effect, 100 is complete control; for Blackgrass plant response rating: Postemergence, 125 g ai/ha, 0 to 100 scale (0 no effect, 100 complete control)
Outline: as §1

[10] = test system: corn (Zea mays); assay: Test A postemergence, visual plant response rating; conditions: for Corn plant response rating (0 to 100 scale): 500 g ai/ha, postemergence, 0 is no effect, 100 is complete control; for Corn plant response rating: Postemergence, 125 g ai/ha, 0 to 100 scale (0 no effect, 100 complete control)
Outline: as §1

[11] = test system: foxtail, green (green foxtail, Setaria viridis); assay: Test A postemergence, visual plant response rating; conditions: for Foxtail, Green plant response rating (0 to 100 scale): 500 g ai/ha, postemergence, 0 is no effect, 100 is complete control; for Foxtail, Green plant response rating: Postemergence, 125 g ai/ha, 0 to 100 scale (0 no effect, 100 complete control)
Outline: as §1

[12] = test system: galium (catchweed bedstraw, Galium aparine); assay: Test A postemergence, visual plant response rating; conditions: for Galium plant response rating (0 to 100 scale): 500 g ai/ha, postemergence, 0 is no effect, 100 is complete control; for Galium plant response rating: Postemergence, 125 g ai/ha, 0 to 100 scale (0 no effect, 100 complete control)
Outline: as §1

[13] = test system: kochia (Kochia scoparia); assay: Test A postemergence, visual plant response rating; conditions: for Kochia plant response rating (0 to 100 scale): 500 g ai/ha, postemergence, 0 is no effect, 100 is complete control; for Kochia plant response rating: Postemergence, 125 g ai/ha, 0 to 100 scale (0 no effect, 100 complete control)
Outline: as §1

[14] = test system: pigweed (Amaranthus retroflexus); assay: Test A postemergence, visual plant response rating; conditions: for Pigweed plant response rating (0 to 100 scale): 500 g ai/ha, postemergence, 0 is no effect, 100 is complete control; for Pigweed plant response rating: Postemergence, 125 g ai/ha, 0 to 100 scale (0 no effect, 100 complete control)
Outline: as §1

[15] = test system: ragweed (common ragweed, Ambrosia elatior); assay: Test A postemergence, visual plant response rating; conditions: for Ragweed plant response rating (0 to 100 scale): 500 g ai/ha, postemergence, 0 is no effect, 100 is complete control; for Ragweed plant response rating: Postemergence, 125 g ai/ha, 0 to 100 scale (0 no effect, 100 complete control)
Outline: as §1

[16] = test system: wheat (Triticum aestivum); assay: Test A postemergence, visual plant response rating; conditions: for Wheat plant response rating (0 to 100 scale): 500 g ai/ha, postemergence, 0 is no effect, 100 is complete control; for Wheat plant response rating: Postemergence, 125 g ai/ha, 0 to 100 scale (0 no effect, 100 complete control)
Outline: as §1

[17] = test system: barnyardgrass (Echinochloa crus-galli); assay: Test B flooded paddy test, visual plant response rating; conditions: 250 g ai/ha, Flood, applied to paddy water, 2-leaf stage, evaluated after 13 to 15 days
Outline: (§2)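 Flooded-pot treatment: water 3 cm over the soil, chemical delivered into that water, depth unchanged for the duration. Assessed by eye versus controls following 13–15 greenhouse days; plants were at 2 leaves when dosed.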

[18] = test system: ducksalad (Heteranhera limosa); assay: as above; conditions: 250 g ai/ha, Flood, applied to paddy water, 2-leaf stage, evaluated after 13 to 15 days
Outline: as §2

[19] = test system: rice (Oryza sativa); assay: as above; conditions: 250 g ai/ha, Flood, applied to paddy water, 2-leaf stage, evaluated after 13 to 15 days
Outline: as §2

[20] = test system: sedge, umbrella (small-flower umbrella sedge, Cyperus difformis); assay: as above; conditions: 250 g ai/ha, Flood, applied to paddy water, 2-leaf stage, evaluated after 13 to 15 days
Outline: as §2

| Compound | Ryegrass, Italian plant response rating (0 to 100 scale) ([1]; 125 g ai/ha Preemergence) | Ryegrass, Italian plant response rating (0 to 100 scale) ([1]; 500 g ai/ha Preemergence) | Barnyardgrass plant response rating (0 to 100 scale) ([2]; 125 g ai/ha Preemergence) | Barnyardgrass plant response rating (0 to 100 scale) ([2]; 500 g ai/ha Preemergence) | Foxtail, Green plant response rating (0 to 100 scale) ([3]; 125 g ai/ha Preemergence) | Foxtail, Green plant response rating (0 to 100 scale) ([3]; 500 g ai/ha Preemergence) | Kochia plant response rating (0 to 100 scale) ([4]; 125 g ai/ha Preemergence) | Kochia plant response rating (0 to 100 scale) ([4]; 500 g ai/ha Preemergence) | Pigweed plant response rating (0 to 100 scale) ([5]; 125 g ai/ha Preemergence) | Pigweed plant response rating (0 to 100 scale) ([5]; 500 g ai/ha Preemergence) | Ragweed plant response rating (0 to 100 scale) ([6]; 125 g ai/ha Preemergence) | Ragweed plant response rating (0 to 100 scale) ([6]; 500 g ai/ha Preemergence) | Ryegrass, Italian plant response rating (0 to 100 scale) [7] | Ryegrass, Italian plant response rating [7] | Barnyardgrass plant response rating (0 to 100 scale) [8] | Barnyardgrass plant response rating [8] | Blackgrass plant response rating (0 to 100 scale) [9] | Blackgrass plant response rating [9] | Corn plant response rating (0 to 100 scale) [10] | Corn plant response rating [10] | also measured |
| --- | --- | --- | --- | --- | --- | --- | --- | --- | --- | --- | --- | --- | --- | --- | --- | --- | --- | --- | --- | --- | --- |
| Cc1ccccc1/C(=N/OC(C)C)c1c(O)c(C)nn(C)c1=O [Compound 19] | 0 | 50 | 50 | 60 | 0 | 40 | 0 | 0 | 0 | 80 | 50 | 80 | 30 | 20 | 60 | 20 | 50 | 10 | 0 | 0 | Foxtail, Green plant response rating (0 to 100 scale) [11]: 50; Foxtail, Green plant response rating [11]: 10; Galium plant response rating (0 to 100 scale) [12]: 90; Galium plant response rating [12]: 80; Kochia plant response rating (0 to 100 scale) [13]: 30; Kochia plant response rating [13]: 10; Pigweed plant response rating (0 to 100 scale) [14]: 80; Pigweed plant response rating [14]: 70; Ragweed plant response rating (0 to 100 scale) [15]: 80; Ragweed plant response rating [15]: 70; Wheat plant response rating (0 to 100 scale) [16]: 0; Wheat plant response rating [16]: 0; Plant response rating, Barnyardgrass (0 to 100 scale, 0 is no effect, 100 is complete control) [17]: 0; Plant response rating, Ducksalad (0 to 100 scale, 0 is no effect, 100 is complete control) [18]: 0; Plant response rating, Rice (0 to 100 scale, 0 is no effect, 100 is complete control) [19]: 0; Plant response rating, Sedge, Umbrella (0 to 100 scale, 0 is no effect, 100 is complete control) [20]: 0 |
| CCn1nc(C)c(O)c(/C(=N/OC)c2cccc(C)c2)c1=O [Compound 1] | 0 | 40 | 0 | 0 | 10 | 30 | 0 | 0 | 0 | 0 | 0 | 10 | 20 | 0 | 10 | 0 | 20 | 0 | 0 | 0 | Foxtail, Green plant response rating (0 to 100 scale) [11]: 10; Foxtail, Green plant response rating [11]: 0; Galium plant response rating (0 to 100 scale) [12]: 30; Galium plant response rating [12]: 0; Kochia plant response rating (0 to 100 scale) [13]: 0; Kochia plant response rating [13]: 0; Pigweed plant response rating (0 to 100 scale) [14]: 0; Pigweed plant response rating [14]: 0; Ragweed plant response rating (0 to 100 scale) [15]: 0; Ragweed plant response rating [15]: 0; Wheat plant response rating (0 to 100 scale) [16]: 0; Wheat plant response rating [16]: 0; Plant response rating, Barnyardgrass (0 to 100 scale, 0 is no effect, 100 is complete control) [17]: 0; Plant response rating, Ducksalad (0 to 100 scale, 0 is no effect, 100 is complete control) [18]: 0; Plant response rating, Rice (0 to 100 scale, 0 is no effect, 100 is complete control) [19]: 0; Plant response rating, Sedge, Umbrella (0 to 100 scale, 0 is no effect, 100 is complete control) [20]: 0 |
| CCO/N=C(/c1ccc(C)cc1)c1c(O)c(C)nn(C)c1=O [Compound 16] | 0 | 50 | 0 | 0 | 0 | 0 | 0 | 0 | 0 | 0 | 0 | 20 | 0 | 0 | 10 | 0 | 0 | 0 | 0 | 0 | Foxtail, Green plant response rating (0 to 100 scale) [11]: 10; Foxtail, Green plant response rating [11]: 0; Galium plant response rating (0 to 100 scale) [12]: 0; Galium plant response rating [12]: 0; Kochia plant response rating (0 to 100 scale) [13]: 10; Kochia plant response rating [13]: 0; Pigweed plant response rating (0 to 100 scale) [14]: 0; Pigweed plant response rating [14]: 0; Ragweed plant response rating (0 to 100 scale) [15]: 30; Ragweed plant response rating [15]: 0; Wheat plant response rating (0 to 100 scale) [16]: 0; Wheat plant response rating [16]: 0; Plant response rating, Barnyardgrass (0 to 100 scale, 0 is no effect, 100 is complete control) [17]: 0; Plant response rating, Ducksalad (0 to 100 scale, 0 is no effect, 100 is complete control) [18]: 0; Plant response rating, Rice (0 to 100 scale, 0 is no effect, 100 is complete control) [19]: 0; Plant response rating, Sedge, Umbrella (0 to 100 scale, 0 is no effect, 100 is complete control) [20]: 0 |
